Tests used:
Type in all cases: in vivo, human
[1] = test system: healthy male volunteers and healthy postmenopausal female volunteers; test: Pharmacodynamics: serum cholesterol, LDL and HDL cholesterol by standard clinical laboratory tests
Source text: (§1) The primary objectives of this study were to a) evaluate safety and tolerability of escalating doses of the compound of Formula I-11 administered as single and multiple oral doses in healthy male volunteers and healthy postmenopausal female volunteers and b) evaluate the PK parameters following escalating doses of the compound of Formula I-11 administered as single and multiple oral doses. The […] secondary objective of this study was to evaluate the pharmacodynamic (PD) parameters following escalating doses of the compound of Formula I-11 administered as single and multiple oral doses. This study was conducted in two parts.
(§2) Participants in Part 1 received a single oral dose of the compound of Formula I-11 or placebo on Day 1 and serial PK samples were collected. Baseline assessments were performed on day −1 prior to dosing. Samples were collected for determination of pharmacodynamic parameters at pre-dose daily and up to 24 hours post dose (day 2) after a single oral dose of the compound of Formula I-11. Participants remained at the study site for observation for 24 hours post-dose through the PK sample collection on Day 2. Participants returned to the site for the 48, 72, and 120-hour post-dose sample collection on Days 3, 4, and 6. Safety was evaluated by a Safety Review Committee prior to escalation to the next dose level cohort.
(§3) Participants in Part 2, Cohorts 1 through 3, received a daily oral dose of the compound of Formula I-11 (50, 100, or 200 mg liquid formulation respectively) or placebo for 7 days. A daily oral dose of the compound of Formula I-11 or placebo in participants in Part 2, Cohort 4 (350 mg liquid formulation) was planned for 14 days but was discontinued early in all subjects, either by the Investigator because of AEs, or by the Sponsor. A decision was made by the Sponsor to discontinue dosing of the entire cohort based on the frequency of AEs and laboratory abnormalities after Day 9. In Cohort 4, participants on the compound of Formula I-11 received daily oral dosing of 350 mg for up to 7 days; one placebo participant received daily oral dosing for 9 days. Samples were collected for determination of pharmacodynamic parameters at pre-dose daily and to 24 hours post dose (day 8) while on drug. Daily trough PK samples were collected for the determination of steady-state from Day 2 to Day 12 or 13. Participants returned to the site on Day 30 for an end-of-study visit. Safety was evaluated by a Safety Review Committee prior to escalation to the next dose level cohort.
Pharmacodynamic endpoints: Protocol-specified endpoints were assessed at baseline and regularly throughout the study period. These assessments included serum cholesterol, LDL, and HDL cholesterol. Measurements of all pharmacodynamic end points were made using standard clinical laboratory tests.

[2] = test system: healthy male volunteers and healthy postmenopausal female volunteers; test: Phase 1 safety and tolerability, single and multiple ascending oral doses
Source text: A total of 131 healthy, males aged 18 to 60 years and post-menopausal females aged 45 to 60 years, participated in this study.
as §1
Part 1 included 80 participants (10 cohorts of 8 participants each). Male and female participants who met the eligibility criteria were randomly assigned, in a ratio of 3:1 to receive the compound of Formula I-11 or matching placebo, N=6 and 2 per dose cohort, respectively. Participant enrollment included […] males and 12.5% females (postmenopausal). The IMP formulation used in Cohorts 1 through 6 was an oral capsule (doses of 1, 3, 10, 30, 100, or 300 mg capsule formulation). An oral liquid formulation was evaluated in Cohorts 7 through 10 (doses of 30, 100, 300 or 450 mg liquid formulation).
as §2
Part 2, Cohorts 1 through 4, included 41 participants (4 cohorts of 10 participants each and 1 additional placebo participant in Cohort 1). Male and female participants who met the eligibility criteria were randomly assigned at a ratio of 4:1 to receive either the compound of Formula I-11 oral liquid formulation or matching placebo, N=8 and 2 per dose cohort respectively. Forty (97.6%) males and 1 (2.4%) female (placebo) participant were enrolled.
as §3
Part 2, MAD Cohort 5 participants received either the compound of Formula I-11, 100 mg (n=8) or placebo (n=2) on Days 1, 2, 3, 4, 5, 6, 7. The last dose was administered on the morning of Day 7. […]

[3] = Pharmacokinetics after single and multiple oral doses
Source text: as §1, §2
Participants in Part 2, Cohorts 1 through 3, received a daily oral dose of the compound of Formula I-11 (50, 100, or 200 mg liquid formulation respectively) or placebo for 7 days. A daily oral dose of the compound of Formula I-11 or placebo in participants in Part 2, Cohort 4 (350 mg liquid formulation) was planned for 14 days but was discontinued early in all subjects, either by the Investigator because of AEs, or by the Sponsor. A decision was made by the Sponsor to discontinue dosing of the entire cohort based on the frequency of AEs and laboratory abnormalities after Day 9. […] Safety was evaluated by a Safety Review Committee prior to escalation to the next dose level cohort. […]

[4] = repeated oral administration, all MAD cohorts (1-5), Day 7

SMILES: COc1cc2c(-c3cnn4cc(N5CCC(N6CCN(C)CC6)CC5)cnc34)ccnc2cc1F [Formula I-11]
- decrease in LDL compared with HDL cholesterol ([1]; all MAD cohorts, Day 7): greater decreases in LDL than HDL cholesterol
- total cholesterol ([1]; repeated oral administration, MAD Cohorts 1-4, across the one-week dosing period): decreases in total cholesterol
- HDL cholesterol [1, 4]: decreases in HDL cholesterol
- LDL cholesterol [1, 4]: decreases in LDL cholesterol
- total cholesterol ([1]; single oral administration, SAD cohorts, within 24 hours): decreases in total cholesterol
- dose level well tolerated ([2]; after 7 daily oral doses (Part 2, MAD)): up to 200 mg
- subjects with increases in ALT >2x ULN ([2]; both, human, in vivo): 3 subjects
- AEs reported and higher than placebo ([2]; in vivo): headache, nausea, vomiting, diarrhea, gastroenteritis, chills, pyrexia, myalgia, decreased appetite, lymphopenia, neutropenia, and liver enzyme increases
- serious adverse events ([2]; in vivo): no serious adverse events
- severity of the majority of AEs ([2]; in vivo): mild or moderate in severity
- participants who discontinued the study ([2]; male, human, in vivo): 3 (9.4%) participants
- dose level well tolerated ([2]; single oral dose (Part 1, SAD)): up to 450 mg
- half-life ([3]; both sexes, in vivo, human, oral): 10 to 15 h
- Mean AUC, dose dependence ([3]; multiple doses from 50-200 mg): increased linearly with greater than dose-proportional increases
- Mean Cmax, dose dependence ([3]; multiple doses from 50-200 mg): increased linearly with greater than dose-proportional increases

— patent publication US20230398118A1, “METHODS OF TREATING CARDIOVASCULAR-RELATED DISEASE” (Keros Therapeutics, Inc., priority 2020, published 2023)
